From the NIST ThermoML archive (doi:10.1016/j.jct.2016.01.019)

Experiment: refractive index (other wavelength) (dimensionless)
Conditions: 94.64 kPa, Liquid, Standard Abbe refractometry

OCCCO [propan-1,3-diol]
refractive index
Conditions	Wavelength=404.7 nm	Wavelength=435.8 nm	Wavelength=486.1 nm	Wavelength=546.1 nm	Wavelength=587.6 nm	Wavelength=632.8 nm	Wavelength=644 nm	Wavelength=706.5 nm
293.15 K	1.45177	1.44842	1.4444	1.44112	1.43939	1.43781	1.43746	1.43577
298.15 K	1.45037	1.447	1.44301	1.43975	1.43802	1.43645	1.43611	1.43441
303.15 K	1.44902	1.44566	1.44168	1.43844	1.43671	1.43514	1.4348	1.43312
308.15 K	1.44755	1.44419	1.44027	1.43699	1.43529	1.43375	1.4334	1.4317
313.15 K	1.44615	1.4428	1.43888	1.43562	1.43392	1.43238	1.43203	1.43035
318.15 K	1.44474	1.44141	1.43754	1.43429	1.43261	1.43109	1.43075	1.42908

CC(O)CO (stereo unspecified) [1,2-propanediol]
refractive index
Conditions	Wavelength=404.7 nm	Wavelength=435.8 nm	Wavelength=486.1 nm	Wavelength=546.1 nm	Wavelength=587.6 nm	Wavelength=632.8 nm	Wavelength=644 nm	Wavelength=706.5 nm
293.15 K	1.445	1.44204	1.43722	1.43406	1.43227	1.43023	1.43008	1.42866
298.15 K	1.4429	1.43967	1.43566	1.43245	1.4305	1.429	1.4289	1.42701
303.15 K	1.44135	1.43785	1.43417	1.43096	1.42927	1.42774	1.42734	1.42571
308.15 K	1.43955	1.43622	1.43239	1.42919	1.42752	1.426	1.42565	1.42397
313.15 K	1.43771	1.43437	1.43055	1.42738	1.42572	1.4242	1.42386	1.42219
318.15 K	1.43584	1.43252	1.42875	1.42557	1.42392	1.42243	1.42208	1.42043
